The text below walks through data of patent US9073858B2, “Methods of targeted drug development” (priority 2010, dated 2015).

Series [1] is described as follows: Stability on incubation with human liver microsomes (HLM). It is filed as in vitro ADME. The note with it: percentage left after incubation with human liver microsomes for 30 minutes. The method, boiled down:
(§1)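 Values are percent compound remaining after 30 min incubation with mouse or human liver microsomes.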
On the technique in general: Liver microsomes are a subcellular fraction often used to study metabolism.

The subject of series [2] is EGF receptor-mediated cell proliferation. Put plainly: Combinatorial studies with known EGFR inhibitors, median effect analysis (MTT assay). Background: Formazan colour is commonly taken as a measure of viable cells.
Procedure: Studies were initiated to evaluate the ability of various compounds disclosed herein to synergize with several compounds known to inhibit the function of the EGF receptor in a cell proliferation assay (MTT assay).
The EGFR inhibitor and AD4 compound dilutions were then mixed 1:1 in a 96 well plate. 50 μl of the mix was then added to the cell plate.
A shifting of the inhibitor curve to the left indicates an increase in the effectiveness of the AD4-compound.
Series [3] is described as follows: Stability on incubation with mouse liver microsomes (MLM). It is filed as in vitro ADME. Particulars: for MLM % Remaining@ 30 Min: percentage left after incubation with mouse liver microsomes for 30 minutes. The method, boiled down: as §1
Series [4] has as its system A549 cells. The series can be described thus: A549 Cell Proliferation Assay (MTT). The format is cell-based. The note with it: Homo sapiens.
The test system of series [5] is caspase 3,7 activity in A431 cells. The series can be described thus: cells. Particulars: for Emax at 8 µM / Emax at 16 µM: Homo sapiens, A-431, read-out: Total Apoptosis (increase in caspase 3,7 activity as percentage of the maximal response); for Ability to Synergize with Tarceva: caspase 3,7 activity, A431 cells. The source says: As described below, the capsase 3,7 assay uses the Promega Caspase-Glo 3/7 assay kit (cat no. G8092).
The Caspase-Glo® 3/7 Assay is a luminescent assay that measures caspase-3 and −7 activities in purified enzyme preparations or cultures of adherent or suspension cells. The assay provides a proluminescent caspase-3/7 substrate, which contains the tetrapeptide sequence, DEVD. This substrate is cleaved to release aminoluciferin, a substrate of luciferase used in the production of light. The Caspase-Glo® 3/7 Reagent has been optimized for caspase activity, luciferase activity and cell lysis. The addition of the single Caspase-Glo® 3/7 Reagent in an “add-mix-measure” format results in cell lysis, followed by caspase cleavage of the substrate and generation of a “glow-type” luminescent signal. The Caspase-Glo® 3/7 Assay is designed for use with multiwell plate formats, making it ideal for automated high-throughput screening of caspase activity or apoptosis.
Staurosporine was used as a positive control.
For the capsase 3,7 assay, cells were incubated for 5.5 hrs at 37° C., 5% CO2. The plate was removed from the incubator and equilibrated to room temperature. After 30 min, 25 μl Caspase 3/7 detection reagent (Promega Caspase-Glo 3/7 assay kit, cat no. G8092) was added to each well. The plate was covered with tin foil and shaken on a plate shaker at speed 4 for 3 min. The plate was then incubated for an additional 60 min at room temperature. Luminescence was detected using the PolarStar plate reader.
All statistical analyses were done using GraphPad Prism.
The assay was stopped after 6 hrs and the presence of caspase was measured using the Promega Caspase-Glo® 3/7 Assay.

Series [6] has as its system H1975 cells. Put plainly: H1975 Cell Proliferation Assay (MTT). Particulars: Homo sapiens, NCI-H1975, 72 h, read-out: IC50 Value (μM) H1975 Cells. The format is cell-based.
Series [7] deals with annexin V in A549 cells. Particulars: for % Total Apoptosis: cells in early- and late-stage apoptosis; for % Relative to Reference Cpd.: reference 4.0 μM camptothecin or 1.0 μM staurosporin. The source says: Assays that measure apoptosis are utilized to determine whether or not compounds can induce programmed cell death in cancer cells. Annexin V is a protein that is used to detect apoptosis by binding to phosphatidylserine expressed on membranes of dead or dying cells. Fluorescently tagged with FITC, it can he used in conjunction with 7-aminoactinomycin D to determine the percentage of cells undergoing apoptosis via flow cytometry. Cells in early apoptosis will emit an FITC signal which will eventually be replaced by the far red 7-AAD signal that is associated with cell membrane permeability due to necrosis.
In brief, for the Annexin V Assay, compounds were added to cells plated in 6-well plates. Treated cells were incubated for up to 30 hours before addition of fluorescent cell marker probes that detect the presence of annexin V. The percentage of cells undergoing apoptosis and necrosis were determined by flow cytometry.
On day 2, working solutions of compounds (at 1000×) were prepared. To 2.0 ml media/well was added 2 μl 1000× compound diluted in 100% DMSO for final DMSO concentration of 0.1%. On day 3, plates were incubated for 30 hrs. […] Cells were collected by centrifugation at 300×g for 5 min.
Resuspended cells were stored at 4° C. in the dark, until flow cytometry analysis.
For flow cytometry analysis of the Annexin V Assay, sample acquisition was on the BD LSR II manufactured by BD Biosciences, San Jose, Calif. […] 10,000 events werer collected based on a stopping gate of forward scatter vs side scatter light. Acquisition was done through BD FACS DiVa software version 6.1.1 on high flow rate (60 μL/min). Calculations were as follows: Quadrant 3=lower left=live cells; Quadrant 4=lower right=early apoptosis; Quadrant 2=upper right=late apoptosis; Quadrant 1=upper left=dead cells. Percent (%)Total apoptosis was calculated as early (quadrant 4)+late (quadrant 2). Percent (%) ratio apoptosis was calculated as (experimental-No treatment/positive control)*100. All statistical analyses are done using GraphPad Prism or Microsoft Excel.

In series [8] the test system is HT-29 cells. The series can be described thus: HT-29 Cell Proliferation Assay (MTT). It is filed as cell-based. The note with it: for IC50: Homo sapiens.
The subject of series [9] is DNA fragmentation in A549 cells. The series can be described thus: DNA Fragmentation Assay (Cell Death Detection ELISA). Particulars: for apoptotic activity: Caspase, DNA Fragmentation, Annexin-V. The format is cell-based. On the technique in general: In an ELISA, binding on a coated surface is turned into a signal by an enzyme label.
The mark [10] stands for this setting: Combination Index with Iressa at 90% inhibition.
The mark [11] stands for this setting: Combination Index with Tykerb at 90% inhibition.
Setting [12] is: A549, 72 h, read-out: IC50 Value (μM) A549 Cells.
The mark [13] stands for this setting: HT-29, 72 h, read-out: IC50 Value (μM) HT-29 Cells.
Setting [14] is: Homo sapiens, A549, 24 h, read-out: % Increase over Background.
The mark [15] stands for this setting: Homo sapiens, A549, read-out: % Increase Relative to Staurosporin.

“Also recorded” adds a separate entry of the source. Where two headings read alike, the source gives them in different places.

Take `Cc1cccc(NC(c2ccc(C(F)(F)F)cc2)c2ccc3cccnc3c2O)n1` (stereo not shown) [AD4-10628]: the “HLM % Remaining@ 30 Min” value in series [1] is listed as 45%. Moreover, the “CI @ ED90” value in series [2] (setting [10]) was determined as 0.91; in [2] (setting [11]), 0.55. In addition, the “synergy with Tykerb” value in [2] (based on CI value) is given as “significant synergy”. Further, the IC50 in [2] (read-out: IC50 Iressa + Compound (nM)) amounted to 93 nM. The “MLM % Remaining@ 30 Min” value in series [3] turned out to be 3%.
With `Cc1ccc2c(C)nc(Nc3nc(-c4ccccc4C)cc(=O)[nH]3)nc2c1` [AD4-11511], the “HLM % Remaining@ 30 Min” value in [1] is 6%. The “CI @ ED90” value stood at 0.93 in series [2] (setting [10]) and 0.87 in [2] (setting [11]). Besides, the “shift in Tykerb's dose-response curve” value in series [2] (in combination with Tykerb) is reported as “leftward shift (i.e., greater potency)”. In addition, the IC50 was 245 nM in series [2] (read-out: IC50 Iressa + Compound, Iressa combined with the compound at a fixed constant ratio, MTT assay) and 118 nM in series [2] (read-out: IC50 Tykerb + Compound, Tykerb combined with the compound at a fixed constant ratio, MTT assay). Besides, in series [3], the “MLM % Remaining@ 30 Min” value was 6%.
With `Cc1ccnc(NC(c2cc(Cl)cc(Cl)c2Cl)c2ccc3cccnc3c2O)c1` (stereo not shown) [AD4-13072], in series [4] (setting [12]), the IC50 is 0.15 µM. Besides, in [5], the Emax at 8 µM came out at 38%, the Emax at 16 µM is 49% and the “Ability to Synergize with Tarceva” value was “+++ (0.3-0.7 Synergism)”. Also, in series [6], the IC50 was found to be 0.29 µM.
Take `Cc1cc(Cl)cnc1NC(c1cccc(Cl)c1Cl)c1ccc2cccnc2c1O` (stereo not shown) [AD4-13147]: the “% Total Apoptosis” value in [7] (1 μM, A549 cells) worked out at 29%; in [7] (10 μM, A549 cells), 28%. Besides, the IC50 is 0.11 µM in series [4] (setting [12]), 0.77 µM in series [8] (setting [13]) and 0.29 µM in [6]. Besides, the “HLM % Remaining@ 30 Min” value in [1] is reported as 98%. Further, the “MLM % Remaining@ 30 Min” value in series [3] is 44%.
`Oc1c(C(Nc2ncc(C(F)(F)F)cc2F)c2ccc(Cl)cc2Cl)ccc2cccnc12` (stereo not shown) [AD4-13165]: the figures for the IC50 in series [4] (setting [12]), in series [8] (setting [13]) and in series [6] were 0.16 µM, 5 µM and 0.14 µM, respectively. Moreover, the “induction of apoptosis in A549 cells (DNA fragmentation assay)” value in series [9] (10 μM, FIG. 15) is “induce apoptosis”. For the same molecule, the “HLM % Remaining@ 30 Min” value in series [1] amounted to 100%. In series [3] (mouse and human liver microsomes (MLM, HLM)), the “stability toward liver microsome incubation” value is reported as “increased stability; also recorded: good stability”. The “MLM % Remaining@ 30 Min” value in series [3] is on record as 100%.
On to `Oc1c(C(Nc2cc(Cl)c(Cl)cn2)c2ccc(Cl)cc2Cl)ccc2cccnc12` (stereo not shown) [AD4-13178], for which the IC50 in [4] (setting [12]) is 0.084 µM; in [4] (A549, read-out: IC50, cell proliferation in A549 or H1975 cells) it was no more than 0.1 µM; in series [8] (setting [13]), 0.79 µM; in series [6], 0.19 µM. In addition, the apoptotic activity entry in [9] is “increased apoptotic activity”. Besides, in series [1], the “HLM % Remaining@ 30 Min” value is recorded as 100%. Moreover, the “MLM % Remaining@ 30 Min” value in [3] is 83%.
`Oc1c(C(Nc2ncc(F)cc2F)c2cc(Cl)cc(Cl)c2Cl)ccc2cccnc12` (stereo not shown) [AD4-13181]: the IC50 in series [4] (setting [12]) came out at 0.12 µM. Besides, in series [5], the Emax at 8 µM came to 43%, the Emax at 16 µM is 47% and the “Ability to Synergize with Tarceva” value is reported as “++ (0.7-0.85 Moderate synergism)”. For the same molecule, in series [6], the IC50 came to 0.58 µM.
Turning to `Oc1c(C(Nc2cc(Cl)c(Cl)cn2)c2ccc(F)cc2Cl)ccc2cccnc12` (stereo not shown) [AD4-13185], the “apoptosis, share of the cell population” value in series [7] (1 μM, A549 cells, FIG. 16B) is given as “greater than 50%”. In addition, the “% Total Apoptosis” value in series [7] (1 μM, A549 cells) amounted to 42%; in series [7] (10 μM, A549 cells), 30%. Further, the “% Relative to Reference Cpd.” value in series [7] (1 μM) is reported as 161%; in [7] (10 μM) it was 202%. Also, the “late apoptosis, share of the cell population” value in series [7] (10 μM, A549 cells, FIG. 16B) is listed as “up to 20%”. The results for the IC50 in [4] (setting [12]), in series [8] (setting [13]) and in series [6] were 0.18 µM, 1.2 µM and 0.23 µM, respectively. The apoptotic activity result in [9] is recorded as “increased apoptotic activity”. Further, the “HLM % Remaining@ 30 Min” value in series [1] was found to be 98%. Also, the “MLM % Remaining@ 30 Min” value in series [3] is reported as 57%.
In the case of `Cc1c(Cl)cnc(NC(c2ccc(Cl)cc2Cl)c2ccc3cccnc3c2O)c1F` (stereo not shown) [AD4-13199], the IC50 turned out to be 0.12 µM in series [4] (setting [12]), 0.75 µM in series [8] (setting [13]) and 0.16 µM in series [6]. The activation at 1 µM in series [9] (setting [14]) came out at 130%. Further, the activation at 10 µM in series [9] (setting [14]) was determined as 492%. Moreover, the Emax at 1 µM in [9] (setting [15]) was 15%. The Emax at 10 µM in series [9] (setting [15]) turned out to be 55%. The “HLM % Remaining@ 30 Min” value in [1] worked out at 100%. The “MLM % Remaining@ 30 Min” value in [3] amounted to 63%.
For the molecule `CCc1cc(Cl)cnc1NC(c1cccc(Cl)c1Cl)c1ccc2cccnc2c1O` (stereo not shown) [AD4-13215], the IC50 in series [4] (setting [12]) worked out at 0.16 µM. In series [8] (setting [13]), the IC50 was 0.97 µM. In series [5], the Emax at 8 µM worked out at 20%, the Emax at 16 µM amounted to 27% and the “Ability to Synergize with Tarceva” value is “++ (0.7-0.85 Moderate synergism)”.
With `Cc1nc(NC(c2cc(Cl)ccc2Cl)c2ccc3cccnc3c2O)c(Cl)cc1Cl` (stereo not shown) [AD4-13220], the IC50 in [4] (setting [12]) was determined as 0.12 µM. Moreover, the IC50 in series [8] (setting [13]) came to 3.3 µM. Further, in series [5], the Emax at 8 µM is 32%, the Emax at 16 µM was 40% and the “Ability to Synergize with Tarceva” value is recorded as “+ (0.85-0.9 Slight synergism)”.
Turning to `C#Cc1cccc(Nc2ncnc3cc(OCCOC)c(OCCOC)cc23)c1` [Tarceva, reference compound], the “HT-29 Cell Proliferation Assay Results (IC50)” value in series [8] is given as “No Effect”. For the same molecule, the IC50 in [8] (HT-29, 72 h, read-out: IC50, Comparison of Incubation Times in HT-29 Cell Proliferation Assay) came out at 15 µM; in series [8] (HT-29, read-out: IC50 from dose-response curves of FIG. 11, HT-29 cells), 12 µM. In addition, the “synergy with Tykerb” value in series [2] is recorded as “did not produce synergistic effects”.
